Reference: US12268683B2, “Compounds and methods for synergistic activation of M channels” (THE REGENTS OF THE UNIVERSITY OF CALIFORNIA, priority 2018, dated 2025)

Assays:
[1] = system: pentylene tetrazole-induced seizures; assay: PTZ chemoconvulsant assay; type: in vivo, mouse; conditions: for clonic seizure incidence: alone
Source text: We compared anticonvulsant activities of test compounds in male C57BL/6 mice (Charles River) aged 2-3 months. Mice were housed and used according to the recommendations in the Guide for the Care and Use of Laboratory Animals of the National Institutes of Health (NIH Publication, 8th edition, 2011). The study protocol was approved by the Institutional Animal Care and Use Committee of University of California, Irvine, which confirmed that all relevant ethical regulations were adhered to. Chemicals were sourced from Sigma (St. Louis, Mo., USA). A pentylene tetrazole (PTZ) chemoconvulsant assay was used-. […] Following the PTZ injection, mice were caged individually and an observer (GWA) blinded to the drug used recorded, over 20 min, clonic and tonic seizure incidence, and seizure-related mortality.
We quantified the anticonvulsant activities of (E)-2-dodecenal and tridecanal in male C57BL/6 mice (Charles River, Wilmington, Mass.) aged 2-3 months. The mice were housed and used according to the recommendations in the Guide for the Care and Use of Laboratory Animals of the National Institutes of Health (NIH Publication, 8th edition, 2011). The study protocol was approved by the Institutional Animal Care and Use Committee of University of California, Irvine. The chemicals were sourced from Sigma (St. Louis, Mo., USA). We used a pentylene tetrazole (PTZ) chemoconvulsant assay as we previously described (30). We injected the mice intraperitoneally with (E)-2-dodecenal (2 or 20 mgkg^−1) (with or without 2.5 mgkg^−1 XE991) or tridecanal (20 mgkg^−1) solubilized in PBS, or vehicle control (PBS), and then 30 minutes later we injected mice intraperitoneally with 80 mgkg-PTZ. Following the PTZ injection, the mice were caged individually and an observer (GWA) blinded to the experimental condition timed the latency to first seizure.
We compared anticonvulsant activities of 3FMSG in male C57BL/6 mice (Charles River) aged 2-3 months. Mice were housed and used according to the recommendations in the Guide for the Care and Use of Laboratory Animals of the National Institutes of Health (NIH Publication, 8th edition, 2011). The study protocol was approved by the Institutional Animal Care and Use Committee of University of California, Irvine, which confirmed that all relevant ethical regulations were adhered to. Chemicals were sourced from Sigma (St. Louis, Mo., USA). We used a pentylene tetrazole (PTZ) chemoconvulsant assay as we previously described^27. Mice were injected intraperitoneally with 3FMSG (5 mg kg^−1) or vehicle control (PBS) and then 30 minutes later injected intraperitoneally with 80 mg kg^−1 PTZ. Following the PTZ injection, mice were caged individually and an observer (GWA) blinded to the drug used recorded seizure activity over 20 minutes.

KCNA1 = KCNA1 (Homo sapiens, UniProt Q09470); assay: TEVC of KCNA1 expressed in Xenopus oocytes; type: cell-based
Source text: cRNA transcripts encoding human KCNA1, KCNQ1, KCNQ2, KCNQ3, KCNQ4, or KCNQ5 were generated by in vitro transcription using the T7 polymerase message machine kit (Thermo Fisher Scientific), after vector linearization, from cDNA sub-cloned into plasmids incorporating X. laevis β-globin 5′ and 3′ UTRs flanking the coding region to enhance translation and cRNA stability. cRNA was quantified by spectrophotometry. Mutant cDNAs were generated by site-directed mutagenesis using a QuikChange kit according to manufacturer's protocol (Stratagene, San Diego, Calif.) and corresponding cRNAs prepared as above. Defolliculated stage V and VI X. laevis oocytes (Ecocyte Bioscience, Austin, Tex.) were injected with Kv channel a subunit cRNAs (10 ng total per oocyte). […]
TEVC recording was performed at room temperature with an OC-725C amplifier (Warner Instruments, Hamden, Conn.) and pClamp10.2 software (Molecular Devices, Sunnyvale, Calif.) 3-5 days after cRNA injection as described in the section above. […] Currents were recorded in response to pulses between −80 and +40 mV at 20 mV intervals, or a single pulse to +40 mV, from a holding potential of −80 mV, to yield current-voltage relationships, current magnitude, and for quantifying activation rate. […]

[2] = humans; cited from earlier work

Sequence of KCNA1 (Q09470 whole entry): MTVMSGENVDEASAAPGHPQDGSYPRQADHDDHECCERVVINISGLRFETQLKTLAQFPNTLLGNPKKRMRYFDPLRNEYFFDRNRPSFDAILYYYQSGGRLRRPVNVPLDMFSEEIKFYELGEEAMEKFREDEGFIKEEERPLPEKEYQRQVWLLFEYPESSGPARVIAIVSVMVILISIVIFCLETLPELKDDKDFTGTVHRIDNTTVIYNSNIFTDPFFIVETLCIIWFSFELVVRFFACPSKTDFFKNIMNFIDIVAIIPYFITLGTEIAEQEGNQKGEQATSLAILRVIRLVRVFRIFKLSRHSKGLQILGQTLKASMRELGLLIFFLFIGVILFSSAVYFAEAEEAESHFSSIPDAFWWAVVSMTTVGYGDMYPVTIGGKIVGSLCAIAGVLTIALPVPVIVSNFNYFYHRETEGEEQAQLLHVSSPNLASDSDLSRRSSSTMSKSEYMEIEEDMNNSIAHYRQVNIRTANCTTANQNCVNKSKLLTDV

SMILES	clonic seizure incidence ([1]; 10 mg/kg i.p.)	clonic seizure incidence ([1]; 20 mg/kg i.p.)	suppression of PTZ-induced tonic seizures ([1]; individually)	effect on KCNA1 (in words) (KCNA1)	mean Tmax [2] [min]	well tolerated dose [2]
CC(C)CC(=O)O [IVA, isovaleric acid]	neither compound reduced clonic seizures alone	no effect	ineffective	did not alter currents	–	–
CC(C)CC(N)=O [Isovaleramide, isovaleramide]	–	–	–	–	30 to 45	at least 2400 mg per day
